In the NIST ThermoML archive (doi:10.1021/je0201370):

Assays:
[1] = 298.1 K; 101.33 kPa; Liquid; vibrating tube
[2] = excess molar enthalpy (molar enthalpy of mixing); xn = mol fraction of the nth substance listed; conditions: 101 kPa, Liquid

c1ccccc1 [benzene]
Conditions	mass density [kg/m3]
[1]	873.45

CCCCCCO [hexan-1-ol] + c1ccccc1
[2]
Conditions	excess molar enthalpy [kcal/mol]
298 K, x1 = 0.0619	0.155
298 K, x1 = 0.0988	0.197
298 K, x1 = 0.1383	0.231
298 K, x1 = 0.1909	0.258
298 K, x1 = 0.2287	0.273
298 K, x1 = 0.2675	0.283
298 K, x1 = 0.3137	0.289
298 K, x1 = 0.3792	0.291
298 K, x1 = 0.4153	0.284
298 K, x1 = 0.4625	0.271
298 K, x1 = 0.5107	0.261
298 K, x1 = 0.5648	0.242
298 K, x1 = 0.6192	0.217
298 K, x1 = 0.7214	0.163
298 K, x1 = 0.7711	0.139
298 K, x1 = 0.8482	0.0908
298 K, x1 = 0.8884	0.0691
298 K, x1 = 0.979	0.0136
308 K, x1 = 0.037	0.115
308 K, x1 = 0.0647	0.173
308 K, x1 = 0.1001	0.217
308 K, x1 = 0.1428	0.256
308 K, x1 = 0.1815	0.279
308 K, x1 = 0.2272	0.299
308 K, x1 = 0.2476	0.306
308 K, x1 = 0.3195	0.317
308 K, x1 = 0.3867	0.322
308 K, x1 = 0.463	0.313
308 K, x1 = 0.4675	0.31
308 K, x1 = 0.5017	0.303
308 K, x1 = 0.5463	0.288
308 K, x1 = 0.593	0.266
308 K, x1 = 0.6577	0.231
308 K, x1 = 0.7485	0.177
308 K, x1 = 0.8067	0.137
308 K, x1 = 0.8318	0.119
308 K, x1 = 0.8867	0.0796
308 K, x1 = 0.9323	0.0478

CCCOC(=O)CC [propyl propanoate]
Conditions	mass density [kg/m3]
[1]	875.53

CCCOC(=O)CC [propyl propanoate] + CCCCCCO
[2], 308 K
Conditions	excess molar enthalpy [kcal/mol]
x1 = 0.0406	0.0552
x1 = 0.089	0.116
x1 = 0.1367	0.17
x1 = 0.1766	0.208
x1 = 0.247	0.269
x1 = 0.3217	0.315
x1 = 0.3805	0.34
x1 = 0.4198	0.355
x1 = 0.4667	0.361
x1 = 0.5259	0.367
x1 = 0.5961	0.362
x1 = 0.6484	0.349
x1 = 0.6999	0.327
x1 = 0.7542	0.299
x1 = 0.7995	0.263
x1 = 0.8595	0.205
x1 = 0.9109	0.143
x1 = 0.9496	0.0872

CCCCCCO [hexan-1-ol]
Conditions	mass density [kg/m3]
[1]	815.16
